Measured values as given in patent US12358886B2, “Heterocyclic compounds for use in the treatment of cancer” (Artios Pharma Limited, priority 2019, dated 2025).

Target: Polθ protein (amino acids 2-2590) (Homo sapiens, UniProt O75417)
Test: Polθ full length enzyme potency assay (PicoGreen)
Conditions: Polθ IC50 (nM), full length N-His, C-term FLAG tagged Polθ, PicoGreen fluorescence, 12 point concentration response

Chain of Polθ protein (amino acids 2-2590) (O75417 2-2590): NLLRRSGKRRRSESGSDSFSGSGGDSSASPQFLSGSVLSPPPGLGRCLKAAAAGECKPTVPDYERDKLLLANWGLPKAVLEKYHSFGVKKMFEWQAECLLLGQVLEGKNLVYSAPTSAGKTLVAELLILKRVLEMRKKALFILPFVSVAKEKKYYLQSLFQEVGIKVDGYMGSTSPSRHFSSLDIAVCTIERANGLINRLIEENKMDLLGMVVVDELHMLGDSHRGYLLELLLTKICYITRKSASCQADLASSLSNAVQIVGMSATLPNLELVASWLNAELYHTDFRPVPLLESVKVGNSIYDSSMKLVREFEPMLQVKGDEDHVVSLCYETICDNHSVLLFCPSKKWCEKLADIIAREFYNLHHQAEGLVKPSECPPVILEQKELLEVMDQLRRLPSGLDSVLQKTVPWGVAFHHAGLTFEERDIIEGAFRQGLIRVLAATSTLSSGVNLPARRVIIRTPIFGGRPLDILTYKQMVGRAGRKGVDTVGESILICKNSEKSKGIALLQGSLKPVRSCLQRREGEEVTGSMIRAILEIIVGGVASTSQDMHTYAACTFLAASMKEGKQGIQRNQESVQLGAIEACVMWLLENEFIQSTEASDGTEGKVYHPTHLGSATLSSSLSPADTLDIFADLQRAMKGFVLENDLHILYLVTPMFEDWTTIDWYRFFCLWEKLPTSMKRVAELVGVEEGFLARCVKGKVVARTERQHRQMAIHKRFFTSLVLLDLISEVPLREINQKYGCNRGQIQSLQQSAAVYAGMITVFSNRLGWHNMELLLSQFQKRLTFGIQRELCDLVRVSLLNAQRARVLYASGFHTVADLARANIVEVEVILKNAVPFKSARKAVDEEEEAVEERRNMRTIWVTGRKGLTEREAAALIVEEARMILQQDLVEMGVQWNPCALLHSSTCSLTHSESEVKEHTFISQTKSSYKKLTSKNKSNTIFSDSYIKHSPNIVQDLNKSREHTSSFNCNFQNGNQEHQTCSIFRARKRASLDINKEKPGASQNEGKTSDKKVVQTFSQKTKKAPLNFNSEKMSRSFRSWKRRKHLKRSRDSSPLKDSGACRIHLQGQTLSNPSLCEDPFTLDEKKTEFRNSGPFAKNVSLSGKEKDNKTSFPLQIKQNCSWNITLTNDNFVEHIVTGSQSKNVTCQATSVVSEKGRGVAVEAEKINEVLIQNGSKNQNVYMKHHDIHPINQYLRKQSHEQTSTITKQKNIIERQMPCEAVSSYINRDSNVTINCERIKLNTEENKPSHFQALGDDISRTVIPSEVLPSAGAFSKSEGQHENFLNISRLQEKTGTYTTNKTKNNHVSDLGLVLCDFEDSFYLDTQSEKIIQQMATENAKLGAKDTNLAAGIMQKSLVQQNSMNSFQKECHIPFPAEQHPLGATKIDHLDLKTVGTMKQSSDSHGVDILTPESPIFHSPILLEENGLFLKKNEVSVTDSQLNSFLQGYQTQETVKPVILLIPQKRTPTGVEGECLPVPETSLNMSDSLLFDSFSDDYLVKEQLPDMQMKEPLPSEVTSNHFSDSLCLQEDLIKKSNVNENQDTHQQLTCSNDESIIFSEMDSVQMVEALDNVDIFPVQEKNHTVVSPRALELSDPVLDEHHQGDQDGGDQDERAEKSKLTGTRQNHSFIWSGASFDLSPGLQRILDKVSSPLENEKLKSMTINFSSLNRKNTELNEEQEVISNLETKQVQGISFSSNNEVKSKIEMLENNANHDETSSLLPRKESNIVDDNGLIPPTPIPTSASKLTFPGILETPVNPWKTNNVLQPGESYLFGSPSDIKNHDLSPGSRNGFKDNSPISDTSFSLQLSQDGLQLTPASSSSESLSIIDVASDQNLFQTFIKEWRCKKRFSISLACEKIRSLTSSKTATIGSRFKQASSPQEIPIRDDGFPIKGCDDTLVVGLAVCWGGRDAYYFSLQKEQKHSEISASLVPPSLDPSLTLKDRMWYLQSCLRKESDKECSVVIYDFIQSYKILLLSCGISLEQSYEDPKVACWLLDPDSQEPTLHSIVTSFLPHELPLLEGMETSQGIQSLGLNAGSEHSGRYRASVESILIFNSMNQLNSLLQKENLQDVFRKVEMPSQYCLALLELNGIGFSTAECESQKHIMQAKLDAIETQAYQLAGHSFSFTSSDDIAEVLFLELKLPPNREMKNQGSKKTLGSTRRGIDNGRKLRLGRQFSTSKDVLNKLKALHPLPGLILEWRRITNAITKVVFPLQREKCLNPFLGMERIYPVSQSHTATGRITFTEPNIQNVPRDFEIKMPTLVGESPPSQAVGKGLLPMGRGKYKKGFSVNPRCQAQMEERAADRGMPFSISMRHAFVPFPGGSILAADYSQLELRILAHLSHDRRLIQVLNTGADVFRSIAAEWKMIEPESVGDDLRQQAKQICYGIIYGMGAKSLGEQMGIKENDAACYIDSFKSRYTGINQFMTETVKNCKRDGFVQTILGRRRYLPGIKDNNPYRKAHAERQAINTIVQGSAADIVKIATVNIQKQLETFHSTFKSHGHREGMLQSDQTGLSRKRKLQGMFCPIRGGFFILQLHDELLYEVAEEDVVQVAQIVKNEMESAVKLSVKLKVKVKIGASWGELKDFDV

Going from `CCN(C(=O)[C@@H]1C[C@H](N[C@@H]2CCC[C@H]2O)CN1c1cc(C(F)(F)F)cc(C)n1)c1ccc(F)c(F)c1` [Example 133, (2S,4S)-N-(3,4-Difluorophenyl)-N-ethyl-4-(((1R,2R)-2-hydroxycyclopentyl)amino)-1-(6-methyl-4-(trifluoromethyl)pyridin-2-yl)pyrrolidine-2-carboxamide] to `CCN(C(=O)[C@@H]1C[C@H](N(C)[C@@H]2CCC[C@H]2O)CN1c1cc(C(F)(F)F)cc(C)n1)c1ccc(F)c(F)c1` [Example 141, (2S,4S)-N-(3,4-Difluorophenyl)-N-ethyl-4-(((1R,2R)-2-hydroxycyclopentyl)(methyl)amino)-1-(6-methyl-4-(trifluoromethyl)pyridin-2-yl)pyrrolidine-2-carboxamide], the IC50 falls from 122 nM to 56 nM (2.2-fold).

Compared with `CCN(C(=O)[C@@H]1C[C@@H](N)CN1c1nc(C)cc(C)c1C#N)c1cccc(C)c1` [Example 40, (2S,4R)-4-Amino-1-(3-cyano-4,6-dimethylpyridin-2-yl)-N-ethyl-N-(m-tolyl)pyrrolidine-2-carboxamide], `CCN(C(=O)[C@@H]1C[C@H](N(C)CCS(C)(=O)=O)CN1c1nc(C)cc(C)c1C#N)c1cccc(C)c1` [Example 46, (2S,4S)-1-(3-Cyano-4,6-dimethylpyridin-2-yl)-N-ethyl-4-(methyl(2-(methylsulfonyl)-ethyl)amino)-N-(m-tolyl)-pyrrolidine-2-carboxamide] is 7.8-fold lower in IC50: 1760 nM for the first, 227 nM for the second. The second is the more potent here.

`Cc1cc(C(F)(F)F)cc(N2C(=O)N(CC(O)CN3CCC(F)(F)C3)C[C@H]2C(=O)N(C)c2ccc(F)c(Cl)c2F)n1` (stereo partly drawn) [Example 216, (4S)—N-(3-Chloro-2,4-difluorophenyl)-1-(3-(3,3-difluoropyrrolidin-1-yl)-2-hydroxy-propyl)-N-methyl-3-(6-methyl-4-(trifluoromethyl)pyridin-2-yl)-2-oxoimidazolidine-4-carboxamide] and `Cc1cc(C(F)(F)F)cc(N2C(=O)N(CCN3CCOCC3)C[C@H]2C(=O)N(C)c2ccc(F)c(Cl)c2F)n1` [Example 195, (S)-N-(3-Chloro-2,4difluorophenyl)-N-methyl-3-(6-methyl-4-(trifluoromethyl)pyridin-2-yl)-1-(2-morpholinoethyl)-2-oxoimidazolidine-4-carboxamide] are the same in IC50: 4 nM for the first, 4 nM for the second.

`CC(=O)N1CCN(CCCN2C[C@@H](C(=O)N(C)c3ccc(F)c(Cl)c3F)N(c3cc(C(F)(F)F)cc(C)n3)C2=O)CC1` [Example 221, (S)-1-(3-(4-Acetylpiperazin-1-yl)propyl)-N-(3-chloro-2,4-difluorophenyl)-N-methyl-3-(6-methyl-4-(trifluoromethyl)pyridin-2-yl)-2-oxoimidazolidine-4-carboxamide] and `Cc1cc(C(F)(F)F)cc(N2C(=O)N(CC3CN(C)C(=O)O3)C[C@H]2C(=O)N(C)c2ccc(F)c(Cl)c2F)n1` (single isomer, unassigned; isomer 2) [Example 230] are within 1.5-fold of each other in IC50: 11 nM for the first, 16 nM for the second.

Compared with `Cc1cc(C)c(C#N)c(N2C[C@@H](O)C[C@H]2C(=O)N(C)c2ccc(F)c(CF)c2)n1` [Example 14, (2S,4S)-1-(3-Cyano-4,6-dimethylpyridin-2-yl)-N-(4-fluoro-3-(fluoromethyl)phenyl)-4-hydroxy-N-methylpyrrolidine-2-carboxamide], `Cc1cc(C(F)(F)F)c(C#N)c(N2CCC[C@H]2C(=O)N(C)c2ccccc2)n1` [Example 1, (S)-1-(3-Cyano-6-methyl-4-(trifluoromethyl)pyridin-2-yl)-N-methyl-N-phenylpyrrolidine-2-carboxamide] is 5.8-fold lower in IC50: 415 nM for the first, 72 nM for the second.

`CCN(C(=O)[C@@H]1CNC(=O)N1c1cc(C(F)(F)F)cc(C)n1)c1ccc(F)c(Cl)c1` [Example 157, (S)—N-(3-Chloro-4-fluorophenyl)-N-ethyl-3-(6-methyl-4-(trifluoromethyl)pyridin-2-yl)-2-oxoimidazolidine-4-carboxamide] and `Cc1cc(C(F)(F)F)cc(N2C(=O)NC[C@H]2C(=O)N(C)c2ccc3c(C)n[nH]c3c2)n1` [Example 238, (S)—N-Methyl-N-(3-methyl-1H-indazol-6-yl)-3-(6-methyl-4-(trifluoromethyl)pyridin-2-yl)-2-oxoimidazolidine-4-carboxamide] are within 1.5-fold of each other in IC50: 32 nM for the first, 28 nM for the second.

`Cc1cc(C(F)(F)F)cc(N2C(=O)N(CCNS(C)(=O)=O)C[C@H]2C(=O)N(C)c2ccc(F)c(Cl)c2)n1` [Example 187, (S)—N-(3-Chloro-4-fluorophenyl)-N-methyl-3-(6-methyl-4-(trifluoromethyl)pyridin-2-yl)-1-(2-(methylsulfonamido)ethyl)-2-oxoimidazolidine-4-carboxamide] and `Cc1cc(C(F)(F)F)cc(N2C(=O)[C@@H](COCc3ccccc3)C[C@H]2C(=O)N(C)c2ccc(F)c(Cl)c2)n1` [Example 76, (2S,4R)-4-((Benzyloxy)methyl)-N-(3-chloro-4-fluorophenyl)-N-methyl-1-(6-methyl-4-(trifluoromethyl)pyridin-2-yl)-5-oxopyrrolidine-2-carboxamide] are within 1.5-fold of each other in IC50: 22 nM for the first, 24 nM for the second.

First: Cc1cc(OC(F)F)cc(N2C(=O)OC[C@H]2C(=O)N(C)c2ccc(F)c(Cl)c2)n1 [Example 121, (S)—N-(3-Chloro-4-fluorophenyl)-3-(4-(difluoromethoxy)-6-methylpyridin-2-yl)-N-methyl-2-oxooxazolidine-4-carboxamide]
Second: CN(C(=O)[C@@H]1COC(=O)N1c1cc(OC(F)F)cc(Cl)n1)c1ccc(F)c(Cl)c1 [Example 120, (S)-3-(6-Chloro-4-(difluoromethoxy)pyridin-2-yl)-N-(3-chloro-4-fluorophenyl)-N-methyl-2-oxooxazolidine-4-carboxamide]
The IC50 of the first is 1.8-fold higher: 167 nM for the first, 94 nM for the second.

Compared with `CN(C(=O)[C@@H]1COC(=O)N1c1cc(C(C)(C)C)cc(Cl)n1)c1ccc(F)c(Cl)c1` [Example 122, (S)-3-(4-(tert-Butyl)-6-chloropyridin-2-yl)-N-(3-chloro-4-fluorophenyl)-N-methyl-2-oxooxazolidine-4-carboxamide], `CCc1c(F)ccc(N(C)C(=O)[C@@H]2COC(=O)N2c2cc(C(F)(F)F)cc(C)n2)c1F` [Example 108, (S)—N-(3-Ethyl-2,4-difluorophenyl)-N-methyl-3-(6-methyl-4-(trifluoromethyl)pyridin-2-yl)-2-oxooxazolidine-4-carboxamide] is 3.4-fold lower in IC50: 41 nM for the first, 12 nM for the second.

In the case of `Cc1cc(C(F)(F)F)cc(N2C(=O)[C@@H](O)[C@@H](O)[C@H]2C(=O)N(C)c2cc(F)cc(Cl)c2)n1` [Example 68, (2S,3S,4S)-N-(3-Chloro-5-fluoro-phenyl)-3,4-dihydroxy-N-methyl-1-(6-methyl-4-(trifluoromethyl)pyridin-2-yl)-5-oxopyrrolidine-2-carboxamide], the IC50 is reported as 31 nM.

Same assay, conditions: read-out: Polθ IC50; full length N-His, C-term FLAG tagged Polθ, PicoGreen fluorescence, 12 point concentration response

Compared with `Cc1cc(C(F)(F)F)cc(N2C(=O)[C@@H](O)C[C@H]2C(=O)N(C)c2ccc(F)c(Cl)c2)n1` [Example 74, (2S,4S)—N-(3-Chloro-4-fluorophenyl)-4-hydroxy-N-methyl-1-(6-methyl-4-(trifluoromethyl)-pyridin-2-yl)-5-oxopyrrolidine-2-carboxamide], `Cc1cc(C(F)(F)F)cc(N2C(=O)N(CC3CN(C)C(=O)O3)C[C@H]2C(=O)N(C)c2ccc(F)c(Cl)c2F)n1` (single isomer, unassigned; isomer 1) [Example 229] is 1.7-fold lower in IC50: 25 nM for the first, 15 nM for the second.
